This is an account of results in PMC8179049 (Chemical Science, 2020).

The term IC50 denotes the concentration at which inhibition is half-maximal.

For assay [1], the target named is T1, human AspH (His6-AspH315-758) (Homo sapiens, UniProt Q12797).
T1 construct: N-Terminally His6-tagged human AspH315-758 (His6-AspH315-758) was produced in Escherichia coli BL21 (DE3); made in house; host or cells: Escherichia coli BL21 (DE3), pET-28a(+) vector
T1 sequence (Q12797 315-758): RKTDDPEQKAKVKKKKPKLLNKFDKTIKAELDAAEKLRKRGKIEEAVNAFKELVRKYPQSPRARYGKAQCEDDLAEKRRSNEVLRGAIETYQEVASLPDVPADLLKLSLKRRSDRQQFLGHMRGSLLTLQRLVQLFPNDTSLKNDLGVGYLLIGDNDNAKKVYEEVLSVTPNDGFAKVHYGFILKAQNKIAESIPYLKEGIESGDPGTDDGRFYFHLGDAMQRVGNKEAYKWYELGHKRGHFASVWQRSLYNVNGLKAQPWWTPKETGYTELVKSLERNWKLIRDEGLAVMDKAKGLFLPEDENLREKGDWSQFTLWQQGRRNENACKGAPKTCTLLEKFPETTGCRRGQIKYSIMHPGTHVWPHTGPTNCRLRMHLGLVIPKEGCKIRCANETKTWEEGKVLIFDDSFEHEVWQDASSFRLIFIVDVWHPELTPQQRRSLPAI
In words: NMR monitoring of AspH-catalyzed oxidative decarboxylation, with final SPE-MS analysis. It is filed as biochemical. The method, then: 2-methylsuccinate and terephthalate, respectively (continues on the following two pages). The AspH- […]
700 NMR machine equipped with a 5mm 1H(13C/15N) inverse cryoprobe. Assay conditions: 10 μM His6-AspH315- […]
iron(II) sulfate hexahydrate (FAS, (NH4)2Fe(SO4)2·6H2O) in 50 mM aqueous Tris-d11 containing 10 %v/v D2O (pH […]
product of the AspH-catalyzed reaction, was determined using SPE-MS (Supporting Information, Section 9) after […]
of the 1H NMR spectrum of commercial succinate in 50 mM aqueous Tris-d11 containing 10 %v/v D2O (pH 7.5, 25° […]
(1 picture or pasted object on this page, not shown here) […]
using a Bruker AVIII 700 NMR machine equipped with a 5mm 1H(13C/15N) inverse cryoprobe. Assay conditions: […]
ammonium iron(II) sulfate hexahydrate (FAS, (NH 4)2Fe(SO4)2·6H2O) in 50 mM aqueous Tris -d11 containing […]
which is the product of the AspH-catalyzed reaction, was determined using SPE-MS (Supporting Information, Section 9) after completion of the NMR experiments. […]
spectrum of synthetic 34 in 50 mM aqueous Tris-d11 containing 10 %v/v D2O (pH 7.5, 25° C); (b) Close-up (3.0-0.9 ppm) of the 1H NMR spectrum of commercial 2,2-dimethylsuccinate (52) in 50 mM aqueous Tris-d11

The subject of assay [2] is glutamic oxaloacetic aminotransferase. Also on record: method as in doi:10.1002/1615-4169(200108)343:6/7<692::AID-ADSC692>3.0.CO. To be noted: cited from earlier work.
The target in assay [3] is T1, human AspH (His6-AspH315-758). In words: SPE-MS AspH inhibition assay. Format: biochemical. The settings on record: mean ± SD, n = 3. The method, then:
6. Recombinant AspH production and purification
N-Terminally His6-tagged human AspH315-758 (His6-AspH315-758) was produced in Escherichia coli BL21 (DE3) cells using a pET-28a(+) vector and purified by Ni(II)-affinity chromatography (HisTrap HP column, GE Healthcare; 1 mL/min flow rate) and size-exclusion chromatography (HiLoad 26/60 Superdex 75 pg 300 mL column; 1 mL/min) using an ÄKTA pure machine (GE Healthcare) as previously reported.1,4 AspH was >95% pure by SDS-PAGE and MS analysis and had the anticipated mass (calculated for His6-AspH315-758: 54519 Da, found: 54519 Da).1 Purified AspH was stored in 50 mM HEPES buffer (pH 7.5, 150 mM NaCl) at a concentration of 125 μM at -78 °C; fresh aliquots were used for all AspH assays.
7. AspH substrate synthesis
AspH substrates were designed based on the sequence of EGFD1 of human coagulation factor X (hFX amino acids 86-124), which is a reported cellular AspH substrate.2 All substrates were prepared with a C-terminal amide.
The hFX-EGFD186-124-4Ser peptide (hFX amino acids 86-124; Supporting Figure S1c),1 used for crystallography experiments, was synthesized by solid phase peptide synthesis (SPPS) and purified by GL Biochem (Shanghai) Ltd (Shanghai, China). The thioether linked cyclic peptide hFX-CP101-119 (hFX amino acids 101-119; Supporting
Figure S1d), which was used as substrate in AspH SPE-MS assays,4 was synthesized by an intramolecular thioetherification cyclization reaction from the corresponding linear peptide (D-Ala replacing Cys101hFX and Ser replacing Cys112hFX) which was obtained by microwave-assisted solid phase peptide synthesis using the Fmoc-protection strategy as described.4
8. AspH inhibition assays […]
water; ammonium iron(II) sulfate hexahydrate, FAS, (NH 4)2Fe(SO4)2·6H2O: 400 mM in 20 mM HCl diluted to 1 mM in Milli-Q® Ultrapure water) were freshly prepared each day from commercially sourced solids (Sigma […]
(Greiner) in an approximately three-fold and 11-point dilution series (100 μM top concentration) using an ECHO 550 acoustic dispenser (Labcyte). DMSO and 2,4 -PDCA were used as negative and positive controls , respectively .
The final DMSO concentration was kept constant at 0.5%v/v throughout all experiments (using the DMSO backfill option of the acoustic dispenser). Each reaction was performed in technical duplicates in adjacent wells of the assay plates; additionally, assays were performed in three independent technical duplicates on different days using different DMSO inhibitor solutions. […]
dispensed across the inhibitor-containing 384-well assay plates with a multidrop dispenser (ThermoFischer Scientific) at 20°C under an ambient atmosphere. The plates were subsequently centrifuged (1000 rpm, 30 s) and incubated for 15 minutes at 20°C. The Substrate Mixture (25 μL/well), containing 2.0 μM hFX-CP101-119, 200 μM […]
Note: The multidrop dispenser ensured proper mixing of the Enzyme and the Substrate Mixtures which was essential for assay reproducibility. The plates were centrifuged (1000 rpm, 30 s) and af ter incubating for 7 minutes, […]
centrifuged (1000 rpm, 60 s) and analysed by MS.
The mass spectrometer parameters were:
Data were exported into Microsoft
The standard deviation (SD) of three
Z’-factors were calculated
9. Determination of kinetic parameters […]
in 50 mM HEPES buffer (pH 7.5).

The target of assay [4] is T2, human AspH (Homo sapiens, UniProt Q12797).
T2 sequence (Q12797 315-758): T1 sequence (Q12797 315-758)
Description: SPE-MS AspH turnover assay in the absence of 2OG (2OG derivative as cosubstrate).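 Further: percent conversion = hydroxylated cyclic peptide peak area relative to summed substrate plus product areas, taken from +2 charge state ion chromatograms by solid phase extraction MS.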 To be noted: 330 μM 2OG or 2OG derivative, 0.1 μM AspH, 2 μM hFX-CP101-119, 50 μM FAS, t = 15 min.
Description: AspH assays were performed as described in the ESI, ^† data are shown as the mean of three independent runs (n = 3; mean ± standard deviation, SD).
AspH assays were performed as described in Section 9 of the Supporting Information using 0.1 μM AspH, 2 μM
a positive control in the SPE-MS AspH turnover assays (Entry 1).
dependent conversion of the AspH substrate hFX-CP101-119 (Supporting Figure S1d). %-Substrate conversion is
AspH assays were performed as
described in Section 9 of the Supporting Information using 0.1 μM AspH, 2 μM hFX-CP101-119, 50 μM FAS, 330
AspH inhibition assays were incubated for 6 rather than 7 minutes before the enzyme reaction was
stopped by the addition of 10%v/v aqueous formic acid.
MS-analyses were performed using a RapidFire RF 365 high-throughput sampling robot (Agilent) attached to an
iFunnel Agilent 6550 accurate mass quadrupole time-of-flight (Q-TOF) mass spectrometer operated in the positive
ionization mode. Assay samples were aspirated under vacuum for 0.4 s and loaded onto a C4 solid phase extraction (SPE) cartridge. After loading, the C4 SPE cartridge was washed with 0.1%v/v aqueous formic acid to remove
non-volatile buffer salts (5 s, 1.5 mL/min). The peptide was eluted from the SPE cartridge with 0.1%v/v aqueous
formic acid in 85/15v/v acetonitrile/water into the mass spectrometer (5 s, 1.25 mL/min) and the SPE cartridge re-
equilibrated with 0.1%v/v aqueous formic acid (1 s, 1.25 mL/min). The mass spectrometer parameters were:
capillary voltage (4000 V), nozzle voltage (1000 V), fragmentor voltage (365 V), gas temperature (280°C), gas
flow (13 L/min), sheath gas temperature (350°C), sheath gas flow (12 L/min). The m/z +2 charge states of the
cyclic peptide (substrate) and the hydroxylated cyclic peptide (product) were used to extract ion chromatogram
data, peak areas were integrated using RapidFire Integrator software (Agilent). Data were exported into Microsoft
Excel and used to calculate the % conversion of the hydroxylation reaction using the equation: % conversion =
100 x (integral product cyclic peptide) / (integral substrate cyclic peptide + integral product cyclic peptide).
Normalized dose-response curves (2,4-PDCA and DMSO controls) were obtained from the raw data by non-linear
regression (GraphPad Prism 5) and used to determine IC50-values. The standard deviation (SD) of three
independent IC50 determinations (n = 3) was calculated using GraphPad Prism 5. Z’-factors were calculated
according to the cited literature using Microsoft Excel (Supporting Figure S3).14

Where “and” joins values, the source holds several entries; their conditions need not be identical. Identical values can stand only once. Like-named read-outs stand apart in the source and are kept apart here. A value given as a limit tells only on which side of the number the result lay.

Consider `CC(C)(CC(=O)C(=O)O)C(=O)O` [compound 34, 4,4-Dimethyl-2OG], for which the “AspH-catalyzed oxidative decarboxylation of the 2OG derivative (NMR)” value in assay [1] (10 μM His6-AspH315-758, 150 μM hFX-CP101-119, 150 μM 2OG derivative, 50 μM FAS, pH 7.5, 25 °C) was “undergoes slow AspH-catalyzed oxidative decarboxylation”. The “hydroxylation (conversion) of hFX-CP101-119 in the final reaction mixture by SPE-MS” value in assay [1] (t = 15 h, 10 μM AspH, 150 μM cosubstrate) is ~ 95%. The “substitution for 2OG in transamination reactions” value in assay [2] is on record as “does not efficiently substitute for 2OG”. Further, the half-inhibitory concentration (IC50) is 0.31 ± 0.1 µM in assay [3] (50 nM His6-AspH315-758, 1.0 μM hFX-CP101-119, read-out: IC50 (ESI Fig. S4)); ~0.3 µM and 0.3 µM in assay [3] (50 nM His6-AspH315–758, 1.0 μM hFX-CP101–119, 3 μM 2OG, read-out: IC50 (inhibition of AspH)); 6.4 ± 0.4 µM in assay [3] (IC50 at 200 μM 2OG (ESI Table S1), assay concentration of 200 μM 2OG); 10 ± 3.1 µM in assay [3] (IC50 at 400 μM 2OG (ESI Table S1), assay concentration of 400 μM 2OG); 18.7 µM and ~18.7 µM in assay [3] (IC50 at 600 μM 2OG (ESI Table S1), assay concentration of 600 μM (0.6 mM) 2OG). Moreover, in assay [4], the “AspH-catalyzed substrate conversion (hydroxylation of hFX-CP101-119)” value is given as under 1%.
